Results published in PubChem BioAssay (NCI).
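Protocol summary: plate cells (96-well), add compound at 5 concentrations, incubate 48 h, interpolate endpoints linearly. TGI: concentration producing complete growth inhibition.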

Legend:
Test in all cases: NCI tumour cell line growth inhibition, 48 h
[1] = system: HCC-2998 colon
[2] = system: HOP-92 NSCLC
[3] = system: SK-MEL-2 melanoma
[4] = system: TK-10 renal
[5] = system: K-562 leukemia
[6] = system: U251 CNS
[7] = system: NCI-H460 lung
[8] = system: UACC-257 melanoma
[9] = system: RPMI-8226 leukemia
[10] = system: M14 melanoma
[11] = system: OVCAR-4 ovarian
[12] = system: SK-MEL-28 melanoma
[13] = system: HCT-15 colon
[14] = system: OVCAR-5 ovarian
[15] = system: SNB-75 CNS
[16] = system: NCI-H23 lung
[17] = system: HT29 colon
[18] = system: MALME-3M melanoma
[19] = system: SN12C renal
[20] = system: SK-OV-3 ovarian
[21] = system: A498 renal
[22] = system: SW-620 colon
[23] = system: UACC-62 melanoma
[24] = system: SF-268 CNS
[25] = system: KM20L2 colon
[26] = system: OVCAR-3 ovarian
[27] = system: MOLT-4 leukemia
[28] = system: SK-MEL-5 melanoma
[29] = system: LOX IMVI melanoma
[30] = system: CCRF-CEM leukemia
[31] = system: LXFL 529 NSCLC
[32] = system: HOP-62 NSCLC
[33] = system: 786-0 renal
[34] = system: NCI-H226 lung
[35] = system: SF-295 CNS
[36] = system: XF 498 CNS
[37] = system: UO-31 renal
[38] = system: NCI-H522 lung
[39] = system: COLO 205 colon
[40] = system: IGROV1 ovarian
[41] = system: EKVX NSCLC
[42] = system: DLD-1 colon
[43] = system: OVCAR-8 ovarian
[44] = system: SF-539 CNS
[45] = system: ACHN renal
[46] = system: DMS 114 small cell lung
[47] = system: CAKI-1 renal
[48] = system: RXF 393 renal
[49] = system: SNB-78 CNS
[50] = system: RXF-631 renal
[51] = system: KM12 colon
[52] = system: A549 NSCLC
[53] = system: HL-60(TB) leukemia
[54] = system: MDA-MB-231 breast
[55] = system: DMS 273 small cell lung
[56] = system: HOP-18 NSCLC
[57] = system: M19-MEL melanoma
[58] = system: SNB-19 CNS
[59] = system: T-47D breast
[60] = system: DU-145 prostate
[61] = system: NCI/ADR-RES ovarian
[62] = system: MDA-N
[63] = system: HS 578T breast
[64] = system: MCF7 breast
[65] = system: SR leukemia
[66] = system: HCT-116 colon
[67] = system: MDA-MB-435
[68] = system: BT-549 breast
[69] = system: PC-3 prostate

Measured: TGI

O=C1O[C@@H](c2ccccc2)C[C@H]1CN1CCOCC1
41.3 µM: [47]
35.4 µM: [16]
not listed: [54] | [55] | [56] | [57] | [58] | [59] | [60] | [61] | [62] | [63] | [64] | [65] | [66] | [67] | [68] | [69]
> 100 µM: all other assays above

CCNCCCCNCCCCNCCCCNCCCCNCC
38.6 µM: [67]
61.8 µM: [62]
81.3 µM: [8]
43.8 µM: [23]
52.6 µM: [12]
98.6 µM: [33]
78.4 µM: [15]
26.3 µM: [63]
> 77.7 µM: [24]
31.5 µM: [18]
> 73.1 µM: [47]
> 52.6 µM: [48]
> 56.2 µM: [4]
not listed: [50]
> 100 µM: all other assays above
